Data from patent US6284785A, “1-arenesulfonyl-2-aryl-pyrrolidine and pyridine derivatives” (Hoffmann- La Roche Inc., priority 1999, dated 2001).

Molecular target: T1, rat mGlu 1a receptor (Rattus norvegicus, UniProt P23385)
T1 construct: expressed in transfected cells; host or cells: EBNA cells (transient transfection)
Test: [Ca2+]i measurements (FLIPR, Fluo-3 AM) on mGlu 1a transfected EBNA cells; agonist or antagonist (against 10 μM glutamate)
Type: cell-based
Settings: for Remarks (agonist / antagonist): table of substituents of the Examples, column Remarks; for agonist/antagonist: activity-data table; for IC50: antagonist, tested against 10 μM glutamate as agonist, read-out: IC50 (compounds marked antagonist)
Experimental: cDNA encoding rat mGlu 1a receptor obtained from Prof. Nakanishi (Kyoto, Japan) was transiently tranfected into EBNA cells using a procedure described by Schlaeger et. al, New Dev. New Appl. Anim Cell Techn., Proc. ESACT Meet., 15th (1998), 105-112 and 117-120. [Ca^2+ ]i measurements were performed on mGlu 1a transfected EBNA cells after incubation of the cells with Fluo-3 AM (0.5 μM final concentration) for 1hour at 37° C. followed by 4 washes with assay buffer (DMEM supplemented with Hank's salt and 20 mM HEPES. [Ca^2+ ]i measurements were done using a fluorometric imaging plate reader (FLIPR, Molecular Devices Corporation, La Jolla, Calif. USA). When compounds were evaluated as antagonists they were tested against 10 μM glutamate as agonist.
The inhibition (antagonists) or activation (agonists) curves were fitted with a four parameter logistic equation giving EC50, IC50, and Hill coefficient using the iterative non linear curve fitting software Origin (Microcal Software Inc., Northampton, Mass., USA).

T1 sequence (P23385 19-1199): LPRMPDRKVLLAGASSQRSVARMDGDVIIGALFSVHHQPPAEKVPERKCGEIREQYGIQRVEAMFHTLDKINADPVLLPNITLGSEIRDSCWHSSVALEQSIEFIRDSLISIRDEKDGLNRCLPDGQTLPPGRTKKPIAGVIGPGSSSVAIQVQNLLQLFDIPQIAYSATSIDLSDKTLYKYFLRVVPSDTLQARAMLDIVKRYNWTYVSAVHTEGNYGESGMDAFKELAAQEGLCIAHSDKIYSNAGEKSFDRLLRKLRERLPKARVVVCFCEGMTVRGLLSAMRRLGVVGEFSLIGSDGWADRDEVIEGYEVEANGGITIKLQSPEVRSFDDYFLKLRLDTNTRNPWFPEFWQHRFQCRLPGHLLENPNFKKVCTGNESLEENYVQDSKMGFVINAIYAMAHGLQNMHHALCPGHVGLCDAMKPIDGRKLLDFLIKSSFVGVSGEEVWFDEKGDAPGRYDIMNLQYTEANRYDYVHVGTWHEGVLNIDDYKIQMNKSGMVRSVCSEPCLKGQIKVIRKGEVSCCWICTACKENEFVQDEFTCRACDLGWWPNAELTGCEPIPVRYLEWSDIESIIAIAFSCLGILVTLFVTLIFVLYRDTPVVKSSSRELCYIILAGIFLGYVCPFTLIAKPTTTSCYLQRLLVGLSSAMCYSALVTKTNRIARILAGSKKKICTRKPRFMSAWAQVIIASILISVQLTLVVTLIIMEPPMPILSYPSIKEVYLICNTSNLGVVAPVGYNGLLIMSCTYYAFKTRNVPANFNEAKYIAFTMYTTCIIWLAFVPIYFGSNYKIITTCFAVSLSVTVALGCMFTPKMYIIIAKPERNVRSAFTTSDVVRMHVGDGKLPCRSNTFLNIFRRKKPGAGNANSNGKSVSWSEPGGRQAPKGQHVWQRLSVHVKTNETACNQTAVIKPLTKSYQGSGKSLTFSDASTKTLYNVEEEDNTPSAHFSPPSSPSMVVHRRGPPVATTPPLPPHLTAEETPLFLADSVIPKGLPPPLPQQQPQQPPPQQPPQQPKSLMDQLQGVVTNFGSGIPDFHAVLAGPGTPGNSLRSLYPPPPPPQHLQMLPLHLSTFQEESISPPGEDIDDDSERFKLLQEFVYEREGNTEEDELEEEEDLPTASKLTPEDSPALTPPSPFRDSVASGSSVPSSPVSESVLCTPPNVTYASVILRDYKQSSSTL

SMILES | agonistic / antagonistic activity to the mGlu receptor | Remarks (agonist / antagonist) | agonist/antagonist | IC50 [µM]
Cc1ccc(S(=O)(=O)N2CCC[C@H]2c2ccc(F)cc2)cc1 [Example 82, (S)-2-(4-Fluoro-phenyl)-1-(toluene-4-sulfonyl)-pyrrolidine] | agonistic activty | Agonist |  | 
Cc1ccc(C2CCCN2S(=O)(=O)c2ccc(C)cc2)cc1 (racemic) [Example 19, (RS)-1-(Toluene-4-sulfonyl)-2-p-tolyl-pyrrolidine] | agonistic activty | Agonist |  | 
COc1cccc(C2CCCN2S(=O)(=O)c2ccc(Cl)cc2)c1 (racemic) [Example 34, (RS)-1-(4-Chloro-benzenesulfonyl)-2-(3-methoxy-phenyl)-pyrrolidine] |  | Antagonist |  | 
O=S(=O)(c1cccc(F)c1)N1CCCC1c1ccc(F)cc1 (racemic) [Example 64, (RS)-1-(3-Fluoro-benzenesulfonyl)-2-(4-fluoro-phenyl)-pyrrolidine] |  | Antagonist |  | 
CCc1ccc(C2CCCN2S(=O)(=O)c2ccc(Cl)cc2)cc1 (racemic) [Example 79, (RS)-2-(4-Ethyl-phenyl)-1-(4-chloro-benzenesulfonyl)-pyrrolidine] |  | Antagonist |  | 
Cc1ccc(C2CCCN2S(=O)(=O)c2ccc(F)cc2)cc1 (racemic) [Example 23, (RS)-1-(4-Fluoro-benzenesulfonyl)-2-p-tolyl-pyrrolidine] |  | Antagonist |  | 
CCc1ccc(S(=O)(=O)N2CCCC2c2ccc(F)cc2)cc1 (racemic) [Example 21, (RS)-1-(4-Ethyl-benzenesulfonyl)-2-(4-fluoro-Rhenyl)-pyrrolidine] | agonistic activty | Agonist |  | 
O=S(=O)(c1ccc(Cl)cc1)N1CCC[C@H]1c1ccc(F)cc1 [Example 77, (S)-1-(4-Chloro-benzenesulfonyl)-2-(4-fluoro-phenyl)-pyrrolidine] | agonistic activty | Agonist |  | 
O=S(=O)(c1ccccc1)N1CCCC1c1ccc(F)cc1 (racemic) [Example 7, (RS)-1-Benzenesulfonyl-2-(4-fluoro-phenyl)-pyrrolidine] |  | Antagonist | antagonist | 8
O=S(=O)(c1ccccc1F)N1CCCC1c1ccc(F)cc1 (racemic) [Example 63, (RS)-1-(2-Fluoro-benzenesulfonyl)-2-(4-fluoro-phenyl)-pyrrolidine] |  | Antagonist |  | 
N#Cc1ccccc1S(=O)(=O)N1CCCC1c1ccc(F)cc1 (racemic) [Example 65, (RS)-1-(2-Cyano-benzenesulfonyl)-2-(4-fluoro-phenyl)-pyrrolidine] |  | Antagonist |  | 
COc1ccc(S(=O)(=O)N2CCCC2c2ccc(F)cc2)cc1 (racemic) [Example 10, (RS)-2-(4-Fluoro-phenyl)-1-(4-methoxy-benzenesulfonyl)-pyrrolidine] |  | Antagonist |  | 
Cc1cccc(C2CCCN2S(=O)(=O)c2ccc(Cl)cc2)c1 (racemic) [Example 29, (RS)-1-(4-Chloro-benzenesulfonyl)-2-m-tolyl-pyrrolidine] | agonistic activty | Agonist |  | 
O=S(=O)(c1ccc(Cl)cc1)N1CCCC1c1cccc(F)c1 (racemic) [Example 2, (RS)-1-(4-Chloro-benzenesulfonyl)-2-(3-fluoro-phenyl)-pyrrolidine] |  | Agonist |  | 
CC1CCN(S(=O)(=O)c2ccc(Cl)cc2)C1c1ccc(F)cc1 (racemic) [Example 89, Mixture of (2RS,3RS)- and (2RS,3 SR)-1-(4-chloro-benzenesulfonyl)-2-(4-fluoro-phenyl)-3-methyl-pyrrolidine] | agonistic activty | agonist |  | 
CN(C)c1ccc(C2CCCN2S(=O)(=O)c2ccc(Cl)cc2)cc1Cl (racemic) [Example 45, (RS)-1-(4-Chloro-benzenesulfonyl)-2-(4-dimethylamino-3-chloro-phenyl)-pyrrolidine] |  | Antagonist |  | 
Cc1ccc(S(=O)(=O)N2CCCC2c2ccc(N(C)C)c(F)c2)cc1 (racemic) [Example 41, (RS)-1-(p-Toluenesulfonyl)-2-(4-dimethylamino-3-fluoro-phenyl)-pyrrolidine] |  | Antagonist |  | 
Cc1ccccc1S(=O)(=O)N1CCCC1c1ccc(F)cc1 (racemic) [Example 18, (RS)-2-(4-Fluoro-phenyl)-1-(toluene-2-sulfonyl)-pyrrolidine] |  | Antagonist | antagonist | 1.37

SMILES | agonistic / antagonistic activity to the mGlu receptor | Remarks (agonist / antagonist) | agonist/antagonist | IC50 [µM]
O=S(=O)(c1ccc(CO)cc1)N1CCCC1c1ccc(F)cc1 (racemic) [Example 84, (RS)-2-(4-Fluoro-phenyl)-1-(4-hydroxymethyl-benzenesulfonyl)-pyrrolidine] | agonistic activty | Agonist |  | 
O=S(=O)(c1ccc(F)cc1)N1CCCC1c1cccs1 (racemic) [Example 35, (RS)-1-(4-Fluoro-benzenesulfonyl)-2-thien-2-yl-pyrrolidine] |  | Antagonist |  | 
O=S(=O)(c1ccc(Cl)cc1)N1CCCC1c1ccccc1 (racemic) [Example 6, (RS)-1-(4-Chloro-benzenesulfonyl)-2-phenyl-pyrrolidine] | agonistic activty | Agonist |  | 
CC(=O)c1ccc(S(=O)(=O)N2CCCC2c2ccc(F)cc2)cc1 (racemic) [Example 27, (RS)-1-{4-[2-(4-Fluoro-phenyl)-pyrrolidine-1-sulfonyl]-phenyl}-ethanone] |  | Antagonist |  | 
O=S(=O)(c1ccc(Cl)cc1)N1CCCC1c1ccc(F)c(Cl)c1 (racemic) [Example 43, (RS)-1-(4-Chloro-benzenesulfonyl)-2-(3-chloro-4-fluoro-phenyl)-pyrrolidine] |  | Antagonist |  | 
O=S(=O)(c1ccc(C(F)(F)F)cc1)N1CCCC1c1ccc(F)cc1 (racemic) [Example 60, (RS)-2-(4-Fluoro-phenyl)-1-(4-trifluoromethyl-benzenesulfonyl)-pyrrolidine] | agonistic activty | Agonist |  | 
O=S(=O)(c1ccccc1)N1CCCC1c1ccc(Cl)cc1 (racemic) [Example 13, (RS)-1-Benzenesulfonyl-2-(4-chloro-phenyl)-pyrrolidine] |  | Agonist |  | 
Cc1ccc(S(=O)(=O)N2CCCC2c2ccc(N(C)C)cc2)cc1 (racemic) [Example 72, (RS)-2-(4-N,N-Dimethylamino-phenyl)-1-(toluene-4-sulfonyl)-pyrrolidine] | agonistic activty | Agonist |  | 
CN(C)c1ccc(C2CCCN2S(=O)(=O)c2ccc(F)cc2)cc1 (racemic) [Example 73, (RS)-2-(4-N,N-Dimethylamino-phenyl)-1-(4-fluoro-benzenesulfonyl)-pyrrolidine] |  | Antagonist |  | 
CN(C)c1ccc(C2CCCN2S(=O)(=O)c2ccc(F)cc2)cc1Cl (racemic) [Example 46, (RS)-1-(4-fluoro-benzenesulfonyl)-2-(4-diimethylamino-3-chloro-phenyl)-pyrrolidine] |  | Antagonist |  | 
COc1ccc(C2CCCN2S(=O)(=O)c2ccc(C)cc2)cc1 (racemic) [Example 25, (RS)-2-(4-Methoxy-phenyl)-1-(toluene-4-sulfonyl)-pyrrolidine] | agonistic activty | Agonist |  | 
Cc1ccc(S(=O)(=O)N2CCCC2c2ccc(F)c(F)c2)cc1 (racemic) [Example 38, (RS)-2-(3,4-Difluoro-phenyl)-1-(toluene-4-sulfonyl)-pyrrolidine] | agonistic activty | Agonist |  | 
CCc1ccc(C2CCCN2S(=O)(=O)c2ccc(F)cc2)cc1 (racemic) [Example 80, (RS)-2-(4-Ethyl-phenyl)-1-(4-fluoro-benzenesulfonyl)-pyrrolidine] |  | Antagonist |  | 
Cc1ccc(S(=O)(=O)N2CCCC2c2ccc(Cl)c(Cl)c2)cc1 (racemic) [Example 47, (RS)-2-(3,4-Dichloro-phenyl)-1-(toluene-4-sufonyl)-pyrrolidine] |  | Antagonist |  | 
Cc1ccc(S(=O)(=O)N2CCCC2c2ccc(C)cc2C)cc1 (racemic) [Example 67, (RS)-2-(2,4-Dimethyl-phenyl)-1-(toluene-4-sulfonyl)-pyrrolidine] |  | Antagonist |  | 
Cc1ccc(S(=O)(=O)N2CCCC2c2cccc(F)c2)cc1 (racemic) [Example 1, (RS)-2-(3-Fluoro-phenyl)-1-(toluene-4-sulfonyl)-pyrrolidine] |  | Agonist |  | 
O=S(=O)(c1ccc(Cl)cc1)N1CCCC1c1ccco1 (racemic) [Example 71, (RS)-1-(4-Chloro-benzenesulfonyl)-2-furan-2-yl-pyrrolidine] |  | Antagonist |  | 
Cc1ccc(S(=O)(=O)N2CCCC2c2ccc(F)cc2)cc1 (racemic) [Example 12, (RS)-2-(4-Fluoro-phenyl)-1-(toluene-4-sulfonyl)-pyrrolidine] |  | Agonist |  | 
